Source: DBAASP
Values after ≈ are worked out from the molar mass of the structure shown. Each block holds one compound with its values, some of them ahead of it.

Columns and labels:
Test in all cases: ≥ marks a high value that may be exact or a test limit, other limits are often not marked, values filed in µg/mL are converted to µM
[1] = system: Staphylococcus epidermidis 154
[2] = system: Staphylococcus epidermidis ATCC 12228
[3] = system: Escherichia coli AB94012
[4] = system: Escherichia coli ATCC 25922
[5] = system: Pseudomonas aeruginosa ATCC 27853
[6] = system: Pseudomonas aeruginosa ATCC 9027
[7] = system: Staphylococcus aureus AB6538
[8] = system: Candida albicans ATCC 36232
[9] = system: Escherichia coli ATCC 2592
[10] = system: Micrococcus luteus ATCC 9341
[11] = system: Proteus vulgaris ATCC 6380
[12] = system: Shigella flexneri ATCC 203
[13] = system: Staphylococcus aureus ATCC 6538
[14] = system: Staphylococcus aureus
[15] = system: Citrobacter freundii
[16] = system: Klebsiella pneumoniae
[17] = system: Salmonella enterica subsp. enterica serovar Paratyphi A
[18] = system: Staphylococcus haemolyticus
[19] = system: Escherichia coli 078
[20] = system: Escherichia coli UB1005
[21] = system: Lacticaseibacillus rhamnosus 7469
[22] = system: Salmonella enterica subsp. enterica serovar Pullorum ATCC 7913
[23] = system: Salmonella enterica subsp. enterica serovar Typhimurium ATCC 14028
[24] = system: Salmonella enterica subsp. enterica serovar Typhimurium C77-31
[25] = system: Staphylococcus aureus ATCC 25923
[26] = system: Staphylococcus aureus ATCC 29213
[27] = system: Streptococcus agalactiae CICC 10465
[28] = system: Streptococcus agalactiae
[29] = system: Streptococcus thermophilus YM-C
[30] = system: Bacillus subtilis KACC 10196
[31] = system: Candida albicans KACC 30071
[32] = system: Enterococcus faecalis KACC 11304
[33] = system: Escherichia coli KACC 1039
[34] = system: Klebsiella pneumoniae KCTC 2242
[35] = system: Pseudomonas aeruginosa KACC 10259
[36] = system: Staphylococcus aureus KACC 10196
[37] = system: Escherichia coli NBRC 14237
[38] = system: Saccharomyces cerevisiae NBRC 10217
[39] = system: Staphylococcus aureus NBRC 12732

MIC [1]: 25 µM (≈ 89.7 µg/mL) | MIC [2]: 12.5 µM (≈ 44.8 µg/mL)
Compound: CC(C)C[C@H](NC(=O)[C@H](Cc1ccc(O)cc1)NC(=O)[C@H](Cc1ccc(O)cc1)NC(=O)CNC(=O)[C@H](Cc1c[nH]c2ccccc12)NC(=O)[C@H](CO)NC(=O)[C@H](CO)NC(=O)[C@H](Cc1c[nH]c2ccccc12)NC(=O)[C@H](CC(C)C)NC(=O)[C@H](CCCCN)NC(=O)[C@@H](NC(=O)[C@@H](NC(=O)[C@H](CC(C)C)NC(=O)[C@@H](N)CC(=O)O)[C@@H](C)O)[C@@H](C)O)C(=O)NCC(=O)N[C@@H](CCCCN)C(=O)N[C@@H](CCCCN)C(=O)N[C@@H](C)C(=O)N[C@@H](CCCN=C(N)N)C(=O)N[C@@H](Cc1c[nH]c2ccccc12)C(=O)N[C@@H](CC(N)=O)C(=O)N[C@@H](CC(C)C)C(=O)N[C@@H](CCCCN)C(=O)N[C@@H](Cc1cnc[nH]1)C(=O)N1CCC[C@H]1C(=O)N[C@@H](Cc1ccc(O)cc1)C(=O)N[C@H](C(=O)N[C@@H](CCC(N)=O)C(=O)N[C@@H](Cc1ccccc1)C(=O)O)C(C)C [DLTTKLWSSWGYYLGKKARWNLKHPYVQF]

MIC [3]: 2.86 µM (≈ 6.25 µg/mL) | MIC [4]: 2.86 µM (≈ 6.25 µg/mL) | MIC [5]: 5.72 µM (≈ 12.5 µg/mL) | MIC [6]: 5.72 µM (≈ 12.5 µg/mL) | MIC [7]: 2.86 µM (≈ 6.25 µg/mL)
Compound: CC[C@H](C)[C@H](NC(=O)[C@H](CCCCN)NC(=O)[C@@H]1CCCN1C(=O)[C@H](CC(C)C)NC(=O)[C@@H](NC(=O)[C@H](CCCCN)NC(=O)[C@H](CCCCN)NC(=O)[C@H](CC(C)C)NC(=O)[C@@H](NC(=O)[C@H](CCCCN)NC(=O)[C@H](CCCCN)NC(=O)[C@H](CC(C)C)NC(=O)[C@H](CC(C)C)NC(=O)[C@H](CCCCN)NC(=O)[C@H](CC(C)C)NC(=O)[C@@H](N)Cc1ccccc1)C(C)C)C(C)C)C(=O)N[C@@H](Cc1ccccc1)C(=O)N[C@@H](CCCCN)C(N)=O [FLKLLKKVLKKVLPKIFK]

MIC [8]: 0.601 µM (≈ 0.779 µg/mL) | MIC [9]: 2.4 µM (≈ 3.12 µg/mL) | MIC [10]: 0.601 µM (≈ 0.779 µg/mL) | MIC [11]: ≥ 77 µM | MIC [6]: 2.4 µM (≈ 3.12 µg/mL) | MIC [12]: 2.4 µM (≈ 3.12 µg/mL) | MIC [13]: 2.4 µM (≈ 3.12 µg/mL) | MIC [14]: 4.81 µM (≈ 6.25 µg/mL) | MIC [2]: 0.601 µM (≈ 0.779 µg/mL)
Compound: CC(C)[C@H](NC(=O)[C@H](CCCCN)NC(=O)[C@@H](N)CCCCN)C(=O)N[C@H](C(=O)N[C@@H](Cc1ccccc1)C(=O)N[C@@H](CCCCN)C(=O)N[C@@H](Cc1ccccc1)C(=O)N[C@@H](CCCCN)C(=O)N[C@@H](Cc1ccccc1)C(=O)N[C@@H](CCCCN)C(N)=O)C(C)C [KKVVFKFKFK]

MIC [15]: 7.63 µM (≈ 12 µg/mL) | MIC [16]: 3.81 µM (≈ 6 µg/mL) | MIC [17]: 3.81 µM (≈ 6 µg/mL)
Compound: CC(C)C[C@H](NC(=O)[C@H](CCCCN)NC(=O)[C@H](CC(C)C)NC(=O)[C@H](CCCCN)NC(=O)[C@H](CS)NC(=O)[C@H](CC(C)C)NC(=O)[C@H](Cc1c[nH]c2ccccc12)NC(=O)CNC(=O)[C@H](CCCCN)NC(=O)[C@H](CS)NC(=O)[C@@H]1CCCN1C(=O)[C@@H](N)CCCCN)C(=O)N[C@@H](CCCN=C(N)N)C(=O)O [KPCKGWLCKLKLR]
MIC [18]: 1.91 µM (≈ 3 µg/mL)

MIC [19]: ≥ 64 µM | MIC [4]: > 64 µM | MIC [20]: ≥ 64 µM | MIC [21]: ≥ 64 µM | MIC [5]: > 64 µM | MIC [22]: ≥ 64 µM | MIC [23]: > 64 µM | MIC [24]: ≥ 64 µM | MIC [25]: > 64 µM | MIC [26]: > 64 µM | MIC [2]: > 64 µM | MIC [27]: ≥ 64 µM | MIC [28]: ≥ 64 µM | MIC [29]: ≥ 64 µM
Compound: CC[C@H](C)[C@H](NC(=O)CNC(=O)[C@@H](NC(=O)[C@@H](N)CC(C)C)[C@@H](C)CC)C(=O)N[C@H](C(=O)N[C@@H](CC(=O)O)C(=O)NCC(=O)N[C@H](C(=O)N[C@@H](CCCCN)C(=O)N[C@@H](CCC(=O)O)C(=O)N[C@@H](CCCN=C(N)N)C(=O)N[C@@H](CCCCN)C(=O)N[C@@H](CCCCN)C(=O)N[C@@H](CCCN=C(N)N)C(=O)N[C@@H](CCCN=C(N)N)C(=O)N[C@@H](CCCN=C(N)N)C(N)=O)C(C)C)[C@@H](C)CC [LIGIIDGVKERKKRRR]

MIC [30]: 1 µM (≈ 1.94 µg/mL) | MIC [31]: 4 µM (≈ 7.76 µg/mL) | MIC [32]: 4 µM (≈ 7.76 µg/mL) | MIC [33]: 1 µM (≈ 1.94 µg/mL) | MIC [34]: 1 µM (≈ 1.94 µg/mL) | MIC [35]: 1 µM (≈ 1.94 µg/mL) | MIC [36]: 4 µM (≈ 7.76 µg/mL)
Compound: CC[C@H](C)[C@H](NC(=O)[C@H](CO)NC(=O)[C@@H](NC(=O)[C@H](CCCCN)NC(=O)[C@H](Cc1ccccc1)NC(=O)[C@@H]1CCCN1C(=O)[C@H](CCCCN)NC(=O)[C@H](CCCCN)NC(=O)[C@H](Cc1ccccc1)NC(=O)[C@@H](NC(=O)[C@H](CCCCN)NC(=O)[C@H](Cc1c[nH]c2ccccc12)NC(=O)[C@@H](N)CCCN=C(N)N)[C@@H](C)CC)[C@@H](C)CC)C(=O)N[C@@H](Cc1cnc[nH]1)C(=O)N[C@@H](CC(C)C)C(N)=O [RWKIFKKPFKISIHL]

MIC [37]: 3.12 µM (≈ 6.25 µg/mL) | MIC [38]: 12.5 µM (≈ 25 µg/mL) | MIC [39]: 3.12 µM (≈ 6.25 µg/mL)
Compound: CC(C)C[C@H](NC(=O)[C@H](CO)NC(=O)[C@H](CO)NC(=O)[C@H](CCCN=C(N)N)NC(=O)[C@H](CCCN=C(N)N)NC(=O)[C@H](CCCN=C(N)N)NC(=O)[C@H](CO)NC(=O)[C@H](CC(C)C)NC(=O)[C@H](Cc1c[nH]c2ccccc12)NC(=O)[C@@H](N)Cc1c[nH]c2ccccc12)C(=O)N[C@@H](Cc1ccccc1)C(=O)N[C@@H](Cc1ccc(O)cc1)C(=O)N[C@@H](Cc1c[nH]c2ccccc12)C(=O)N[C@@H](CCCN=C(N)N)C(=O)O [WWLSRRRSSLFYWR]
